Bridge positions count the residues as written; N and C are the ends. Peptide text beside a SMILES is read from it. * marks the point of attachment. X8 = O=P(O)(O)OC[C@H]1O[C@H](O[C@H]2[C@@H](O)[C@H](O)[C@@H](CO)O[C@@H]2*)[C@@H](O)[C@@H](O)[C@@H]1O; X1 = OC[C@H]1O[C@H](OC[C@H]2O[C@H](*)[C@@H](O)[C@@H](O)[C@@H]2O)[C@@H](O)[C@@H](O)[C@@H]1O; X2 = OC[C@H]1O[C@H](O[C@H]2[C@@H](O)[C@H](O)[C@@H](CO)O[C@@H]2*)[C@@H](O)[C@@H](O)[C@@H]1O; X4 = OC[C@H]1O[C@H](OC[C@H]2O[C@H](*)[C@@H](O)[C@@H](O)[C@@H]2O)[C@H](O)[C@@H](O)[C@@H]1O
Target: T1, thermolysin (Bacillus thermoproteolyticus, UniProt P00800)
T1 sequence (P00800 233-548): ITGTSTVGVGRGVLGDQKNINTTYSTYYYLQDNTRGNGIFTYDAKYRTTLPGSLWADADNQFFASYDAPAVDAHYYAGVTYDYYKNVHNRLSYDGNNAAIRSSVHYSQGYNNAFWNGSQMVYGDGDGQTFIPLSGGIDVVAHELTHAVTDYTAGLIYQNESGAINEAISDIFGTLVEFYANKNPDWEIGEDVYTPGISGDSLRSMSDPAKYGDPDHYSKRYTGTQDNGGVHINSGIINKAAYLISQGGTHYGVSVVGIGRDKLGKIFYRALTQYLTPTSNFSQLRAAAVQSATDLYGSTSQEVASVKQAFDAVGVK
Assay: Proteolytic stability: half-life to thermolysin degradation
Type: in vitro ADME
Conditions: for Change in Half-Life to Thermolysin Degradation: glyco-variant minus its corresponding unglycosylated CBM (e.g. 2-1), *** not used in the correlation plot; for half-life: thermolysin (isolated protease), thermolysin degradation, mean of three trials ± SD, procedures as described previously (ESI ref 18)
Experimental: All error bars reported are standard deviations of data achieved from three separate trials.
cellulose that were determined in accordance with our procedures as described previously 18.
The results are presented as mean of three trials ± SD. *Denotes an averaged value of four trials

SMILES	Change in Half-Life to Thermolysin Degradation	half-life
CC[C@H](C)[C@@H]1NC(=O)CNC(=O)CNC(=O)[C@@H](NC(=O)[C@H](CCC(N)=O)NC(=O)CNC(=O)[C@H](Cc2ccc(O)cc2)NC(=O)[C@H](Cc2c[nH]cn2)NC(=O)[C@H](CO[C@H]2O[C@H](CO[C@H]3O[C@H](CO)[C@@H](O)[C@H](O)[C@@H]3O)[C@@H](O)[C@H](O)[C@@H]2O)NC(=O)[C@H](CCC(N)=O)NC(=O)[C@@H](N)[C@@H](C)O)CSSC[C@@H]2NC(=O)[C@H]([C@@H](C)O)NC(=O)[C@H]([C@@H](C)O)NC(=O)CNC(=O)[C@H](CO)NC(=O)[C@H](C)NC(=O)[C@H](CSSC[C@@H](C(=O)N[C@@H](CC(C)C)C(=O)O)NC(=O)[C@H](CCC(N)=O)NC(=O)[C@H](CO)NC(=O)[C@H](Cc3ccc(O)cc3)NC(=O)[C@H](Cc3ccc(O)cc3)NC(=O)[C@@H]3CCCN3C(=O)[C@H](CC(N)=O)NC(=O)[C@H](CC(C)C)NC(=O)[C@H](C(C)C)NC(=O)[C@H](CCC(N)=O)NC2=O)NC(=O)[C@H](C(C)C)NC(=O)[C@H]([C@@H](C)O)NC(=O)[C@@H]2CCCN2C(=O)CNC(=O)[C@H](CO)NC(=O)[C@H](Cc2ccc(O)cc2)NC(=O)CNC1=O [CBM variant 29] (H-TQS(X1)HYGQCGGIGYSGPTVCASGTTCQVLNPYYSQCL-OH; disulfide 8-25, 19-35)	37.8 min	51.6 ± 1.8 min
CC[C@H](C)[C@@H]1NC(=O)CNC(=O)CNC(=O)[C@@H](NC(=O)[C@H](CCC(N)=O)NC(=O)CNC(=O)[C@H](Cc2ccc(O)cc2)NC(=O)[C@H](Cc2c[nH]cn2)NC(=O)[C@H](CO[C@H]2O[C@H](CO[C@H]3O[C@H](CO)[C@@H](O)[C@H](O)[C@H]3O)[C@@H](O)[C@H](O)[C@@H]2O)NC(=O)[C@H](CCC(N)=O)NC(=O)[C@@H](N)[C@@H](C)O)CSSC[C@@H]2NC(=O)[C@H]([C@@H](C)O)NC(=O)[C@H]([C@@H](C)O)NC(=O)CNC(=O)[C@H](CO)NC(=O)[C@H](C)NC(=O)[C@H](CSSC[C@@H](C(=O)N[C@@H](CC(C)C)C(=O)O)NC(=O)[C@H](CCC(N)=O)NC(=O)[C@H](CO)NC(=O)[C@H](Cc3ccc(O)cc3)NC(=O)[C@H](Cc3ccc(O)cc3)NC(=O)[C@@H]3CCCN3C(=O)[C@H](CC(N)=O)NC(=O)[C@H](CC(C)C)NC(=O)[C@H](C(C)C)NC(=O)[C@H](CCC(N)=O)NC2=O)NC(=O)[C@H](C(C)C)NC(=O)[C@H]([C@@H](C)O)NC(=O)[C@@H]2CCCN2C(=O)CNC(=O)[C@H](CO)NC(=O)[C@H](Cc2ccc(O)cc2)NC(=O)CNC1=O [CBM variant 30] (H-TQS(X4)HYGQCGGIGYSGPTVCASGTTCQVLNPYYSQCL-OH; disulfide 8-25, 19-35)	33 min	46.8 ± 6.6 min
CC[C@H](C)[C@@H]1NC(=O)CNC(=O)CNC(=O)[C@@H](NC(=O)[C@H](CCC(N)=O)NC(=O)CNC(=O)[C@H](Cc2ccc(O)cc2)NC(=O)[C@H](Cc2c[nH]cn2)NC(=O)[C@H](CO[C@H]2O[C@H](CO)[C@@H](O)[C@H](O)[C@@H]2O[C@H]2O[C@H](COP(=O)(O)O)[C@@H](O)[C@H](O)[C@@H]2O)NC(=O)[C@H](CCC(N)=O)NC(=O)[C@@H](N)[C@@H](C)O)CSSC[C@@H]2NC(=O)[C@H]([C@@H](C)O)NC(=O)[C@H]([C@@H](C)O)NC(=O)CNC(=O)[C@H](CO)NC(=O)[C@H](C)NC(=O)[C@H](CSSC[C@@H](C(=O)N[C@@H](CC(C)C)C(=O)O)NC(=O)[C@H](CCC(N)=O)NC(=O)[C@H](CO)NC(=O)[C@H](Cc3ccc(O)cc3)NC(=O)[C@H](Cc3ccc(O)cc3)NC(=O)[C@@H]3CCCN3C(=O)[C@H](CC(N)=O)NC(=O)[C@H](CC(C)C)NC(=O)[C@H](C(C)C)NC(=O)[C@H](CCC(N)=O)NC2=O)NC(=O)[C@H](C(C)C)NC(=O)[C@H]([C@@H](C)O)NC(=O)[C@@H]2CCCN2C(=O)CNC(=O)[C@H](CO)NC(=O)[C@H](Cc2ccc(O)cc2)NC(=O)CNC1=O [CBM variant 31] (H-TQS(X8)HYGQCGGIGYSGPTVCASGTTCQVLNPYYSQCL-OH; disulfide 8-25, 19-35)	12 min	25.8 ± 3 min
CC[C@H](C)[C@@H]1NC(=O)CNC(=O)CNC(=O)[C@@H](NC(=O)[C@H](CCC(N)=O)NC(=O)CNC(=O)[C@H](C)NC(=O)[C@H](Cc2c[nH]cn2)NC(=O)[C@H](CO[C@H]2O[C@H](CO)[C@@H](O)[C@H](O)[C@@H]2O[C@H]2O[C@H](CO)[C@@H](O)[C@H](O)[C@@H]2O)NC(=O)[C@H](CCC(N)=O)NC(=O)[C@@H](N)[C@@H](C)O)CSSC[C@@H]2NC(=O)[C@H]([C@@H](C)O)NC(=O)[C@H]([C@@H](C)O)NC(=O)CNC(=O)[C@H](CO)NC(=O)[C@H](C)NC(=O)[C@H](CSSC[C@@H](C(=O)N[C@@H](CC(C)C)C(=O)O)NC(=O)[C@H](CCC(N)=O)NC(=O)[C@H](CO)NC(=O)[C@H](Cc3ccc(O)cc3)NC(=O)[C@H](Cc3ccc(O)cc3)NC(=O)[C@@H]3CCCN3C(=O)[C@H](CC(N)=O)NC(=O)[C@H](CC(C)C)NC(=O)[C@H](C(C)C)NC(=O)[C@H](CCC(N)=O)NC2=O)NC(=O)[C@H](C(C)C)NC(=O)[C@H]([C@@H](C)O)NC(=O)[C@@H]2CCCN2C(=O)CNC(=O)[C@H](CO)NC(=O)[C@H](Cc2ccc(O)cc2)NC(=O)CNC1=O [CBM variant 32] (H-TQS(X2)HAGQCGGIGYSGPTVCASGTTCQVLNPYYSQCL-OH; disulfide 8-25, 19-35)	1.2 min	6 ± 1.2 min
CC[C@H](C)[C@@H]1NC(=O)CNC(=O)CNC(=O)[C@@H](NC(=O)[C@H](CCC(N)=O)NC(=O)CNC(=O)[C@H](Cc2ccc(O)cc2)NC(=O)[C@H](Cc2c[nH]cn2)NC(=O)[C@@H](NC(=O)[C@H](CCC(N)=O)NC(=O)[C@@H](N)[C@@H](C)O)[C@@H](C)O[C@H]2O[C@H](CO)[C@@H](O)[C@H](O)[C@@H]2O[C@H]2O[C@H](CO)[C@@H](O)[C@H](O)[C@@H]2O)CSSC[C@@H]2NC(=O)[C@H]([C@@H](C)O)NC(=O)[C@H]([C@@H](C)O)NC(=O)CNC(=O)[C@H](CO)NC(=O)[C@H](C)NC(=O)[C@H](CSSC[C@@H](C(=O)N[C@@H](CC(C)C)C(=O)O)NC(=O)[C@H](CCC(N)=O)NC(=O)[C@H](CO)NC(=O)[C@H](Cc3ccc(O)cc3)NC(=O)[C@H](Cc3ccc(O)cc3)NC(=O)[C@@H]3CCCN3C(=O)[C@H](CC(N)=O)NC(=O)[C@H](CC(C)C)NC(=O)[C@H](C(C)C)NC(=O)[C@H](CCC(N)=O)NC2=O)NC(=O)[C@H](C(C)C)NC(=O)[C@H]([C@@H](C)O)NC(=O)[C@@H]2CCCN2C(=O)CNC(=O)[C@H](CO)NC(=O)[C@H](Cc2ccc(O)cc2)NC(=O)CNC1=O [CBM variant 33] (H-TQT(X2)HYGQCGGIGYSGPTVCASGTTCQVLNPYYSQCL-OH; disulfide 8-25, 19-35)	72 min	93.6 ± 24 min
CC[C@H](C)[C@@H]1NC(=O)CNC(=O)CNC(=O)[C@@H](NC(=O)[C@H](CCC(N)=O)NC(=O)CNC(=O)[C@H](Cc2ccc(O)cc2)NC(=O)[C@H](Cc2c[nH]cn2)NC(=O)[C@H](CS[C@H]2O[C@H](CO)[C@@H](O)[C@H](O)[C@@H]2O[C@H]2O[C@H](CO)[C@@H](O)[C@H](O)[C@@H]2O)NC(=O)[C@H](CCC(N)=O)NC(=O)[C@@H](N)[C@@H](C)O)CSSC[C@@H]2NC(=O)[C@H]([C@@H](C)O)NC(=O)[C@H]([C@@H](C)O)NC(=O)CNC(=O)[C@H](CO)NC(=O)[C@H](C)NC(=O)[C@H](CSSC[C@@H](C(=O)N[C@@H](CC(C)C)C(=O)O)NC(=O)[C@H](CCC(N)=O)NC(=O)[C@H](CO)NC(=O)[C@H](Cc3ccc(O)cc3)NC(=O)[C@H](Cc3ccc(O)cc3)NC(=O)[C@@H]3CCCN3C(=O)[C@H](CC(N)=O)NC(=O)[C@H](CC(C)C)NC(=O)[C@H](C(C)C)NC(=O)[C@H](CCC(N)=O)NC2=O)NC(=O)[C@H](C(C)C)NC(=O)[C@H]([C@@H](C)O)NC(=O)[C@@H]2CCCN2C(=O)CNC(=O)[C@H](CO)NC(=O)[C@H](Cc2ccc(O)cc2)NC(=O)CNC1=O [CBM variant 34] (H-TQC(X2)HYGQCGGIGYSGPTVCASGTTCQVLNPYYSQCL-OH; disulfide 8-25, 19-35)	–	10.8 ± 1.2 min

From paper PMC5580309, “Molecular-scale features that govern the effects of O-glycosylation on a carbohydrate-binding module” (Chemical Science, 2015)
